# Measurements as given in US9340577B2, “HLA binding motifs and peptides and their uses” (priority 1992, dated 2016).
# Read-outs that look alike come from different tables or passages of the source. No end group written: not given here.
# Key:
# Test in all cases: biochemical
# DRB1*0301 = DRB1*0301 (Homo sapiens, UniProt P01903+P01911, A100K/A102G/A103R/A169T/F55Y/I96L/K41T/L162R/M171V/P40S/Q125H/Q178H/Q39Y/R42S/S66N/T106N/T262R/W38E/Y61H); format: binding
# DRB5*0101 = DRB5*0101 (Homo sapiens, UniProt P01903+Q30154)
# DRB3*0101 = DRB3*0101 (Homo sapiens, UniProt P01903+P79483); format: binding
# DR7 (DRB1*0701) = DR7 (DRB1*0701) (Homo sapiens, UniProt P01903+P01911, A100R/A102G/A103Q/D57E/D86V/E43K/F76Y/K127E/L162R/M171V/P40G/Q125H/Q99D/R33Q/R42Y/R54Q/S133A/S66F/T210M/V115G/Y107V/Y59L/Y89S); format: binding
# DRB1*0802 = DRB1*0802 (Homo sapiens, UniProt P01903+P01911, A100R/A103L/A169T/F76Y/H45Y/I96F/K41T/L162R/M171V/P40S/Q125H/Q178H/Q39Y/Q99D/R218S/R42G/S66Y/V115G/W38E); format: binding
# DRB1*1101 = DRB1*1101 (Homo sapiens, UniProt P01903+P01911, A100R/A169T/A87E/I96F/K41T/L162R/M171V/P40S/Q125H/Q178H/Q39Y/Q99D/R42S/S66Y/T262R/V115G/W38E)
# DRB1*1101, sequence (P01903 26-254 limits assumed, other chains not shown): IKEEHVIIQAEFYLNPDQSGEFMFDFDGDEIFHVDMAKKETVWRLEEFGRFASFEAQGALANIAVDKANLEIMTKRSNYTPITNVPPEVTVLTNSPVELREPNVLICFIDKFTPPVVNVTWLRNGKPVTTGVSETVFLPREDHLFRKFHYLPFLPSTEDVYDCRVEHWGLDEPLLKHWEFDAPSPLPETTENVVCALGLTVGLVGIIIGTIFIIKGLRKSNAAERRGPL
# DR1 (DRB1*0101) = DR1 (DRB1*0101) (Homo sapiens, UniProt P01903+P01911, A100R/D57E/F55L/F60I/F76Y/I96L/L162R/M171V/P40L/Q125E/R42F/V115G/Y59C); format: binding
# DRB1*1302 = DRB1*1302 (Homo sapiens, UniProt P01903+P01911, A100E/A169T/K41T/L162R/M171V/P40S/Q125H/Q178H/Q39Y/Q99D/R42S/S66N/T262R/V115G/W38E/Y61H); format: binding
# DRB1*1302, sequence (P01903 26-254 limits assumed, other chains not shown): as above
# DRB1*1501 = DRB1*1501 (Homo sapiens, UniProt P01903+P01911); format: binding
# DRB4*0101 = DRB4*0101 (Homo sapiens, UniProt P01903+P13762, G164S); format: binding
# DRB1*0901 = DRB1*0901 (Homo sapiens, UniProt P01903+P01911, A100R/A103E/D57H/D86V/F55Y/F60I/F76Y/I96F/K127E/L162R/M171V/P40D/Q125H/Q99R/R33Q/R42F/S133A/S66N/T210M/V115G/W38K/Y107V/Y59G/Y89S); format: binding
# DR4w4 (DRB1*0401) = DR4w4 (DRB1*0401) (Homo sapiens, UniProt P01903+P01911, A100K/A169T/F76Y/I96L/K127E/L162R/M171V/N62H/P40V/Q125Y/R42H/S133A/S149N/S66Y/V115G/V209L/W38E); format: binding
# DRB1*0405 = DRB1*0405 (Homo sapiens, UniProt P01903+P01911, A100R/A169T/D86S/F76Y/I96L/K127E/L162R/M171V/N62H/P40V/Q125Y/R42H/S133A/S149N/S66Y/V115G/V209L/W38E); format: binding
# DRB1*0301, sequence (P01903 26-254 limits assumed, other chains not shown): as above
Molecule,IC50 (DRB1*0301) [µM],IC50 (DRB5*0101; Binding affinity DRB5 *0101) [µM],IC50 (DRB3*0101) [µM],IC50 (DR7 (DRB1*0701)) [µM],IC50 (DRB1*0802) [µM],IC50 (DRB1*1101; Binding affinity DRB1 *1101) [µM],IC50 (DR1 (DRB1*0101)) [µM],IC50 (DRB1*1302) [µM],IC50 (DRB1*1501) [µM],IC50 (DRB4*0101) [µM],IC50 (DRB1*0901) [µM],IC50 (DR4w4 (DRB1*0401)) [µM],IC50 (DRB1*1101) [µM],IC50 (DRB5*0101) [µM],IC50 (DRB1*0405) [µM],IC50 (DRB1*1101; […]) [µM]
CC[C@H](C)[C@H](N)C(=O)N[C@@H](CC(C)C)C(=O)N[C@@H](CC(C)C)C(=O)N[C@@H](Cc1c[nH]c2ccccc12)C(=O)N[C@@H](CCC(N)=O)C(=O)N1CCC[C@H]1C(=O)N[C@H](C(=O)N1CCC[C@H]1C(=O)N[C@H](C(=O)N[C@@H](Cc1c[nH]cn1)C(=O)N[C@H](C(=O)N[C@H](C(=O)N1CCC[C@H]1C(=O)N[C@@H](CC(C)C)C(=O)N[C@@H](CO)C(=O)O)C(C)C)[C@@H](C)O)C(C)C)[C@@H](C)CC [Peptide 68.0038],> 20,> 20,> 20,,,,,,,,,,,,,
CC[C@H](C)[C@H](NC(=O)CNC(=O)[C@H](Cc1ccc(O)cc1)NC(=O)[C@H](CC(C)C)NC(=O)[C@H](CO)NC(=O)[C@H](CC(C)C)NC(=O)[C@H](CC(C)C)NC(=O)[C@H](CO)NC(=O)[C@H](CC(C)C)NC(=O)[C@H](CCC(=O)O)NC(=O)[C@H](CO)NC(=O)[C@@H](N)CC(C)C)C(=O)N[C@@H](Cc1c[nH]cn1)C(=O)N[C@@H](CCCCN)C(=O)N[C@@H](CCC(N)=O)C(=O)O [Peptide 68.0044],> 20,,> 20,> 20,,,,,,,,,,,,
CSCC[C@H](NC(=O)CNC(=O)CNC(=O)[C@H](CCCNC(=N)N)NC(=O)[C@@H](NC(=O)[C@H](CCC(N)=O)NC(=O)[C@H](C)NC(=O)[C@@H](NC(=O)[C@@H](NC(=O)[C@H](CC(C)C)NC(=O)[C@H](Cc1c[nH]cn1)NC(=O)[C@H](Cc1ccc(O)cc1)NC(=O)[C@@H](N)CCCCN)[C@@H](C)O)C(C)C)C(C)C)C(=O)N[C@H](C(=O)N[C@@H](Cc1ccccc1)C(=O)O)C(C)C [Peptide 68.0120],> 20,,> 20,,,,,,,,,,,,,
CC[C@H](C)[C@H](NC(=O)[C@@H](N)CCCCN)C(=O)N[C@@H](Cc1ccccc1)C(=O)NCC(=O)N[C@@H](CO)C(=O)N[C@@H](CC(C)C)C(=O)N[C@@H](C)C(=O)N[C@@H](Cc1ccccc1)C(=O)N[C@@H](CC(C)C)C(=O)N1CCC[C@H]1C(=O)N[C@@H](CCC(=O)O)C(=O)N[C@@H](CO)C(=O)N[C@@H](Cc1ccccc1)C(=O)N[C@@H](CC(=O)O)C(=O)NCC(=O)N[C@@H](CC(=O)O)C(=O)N1CCC[C@H]1C(=O)N[C@@H](C)C(=O)O [Peptide 1533.07],> 20,,> 20,,> 20,> 20,,,,,,,,,,
CSCC[C@H](NC(=O)[C@H](CS)NC(=O)[C@H](CC(N)=O)NC(=O)[C@H](CC(=O)O)NC(=O)[C@H](CCCCN)NC(=O)[C@H](CC(N)=O)NC(=O)CN)C(=O)N[C@H](C(=O)N[C@@H](Cc1ccc(O)cc1)C(=O)N[C@H](C(=O)N[C@@H](C)C(=O)N[C@@H](Cc1c[nH]c2ccccc12)C(=O)N[C@@H](CC(=O)O)C(=O)N[C@@H](CO)C(=O)N[C@H](C(=O)O)C(C)C)C(C)C)[C@@H](C)O [Peptide 1601.09],8.83,> 20,> 20,4.39,11.5,> 20,2.23,> 20,0.461,0.041,> 20,2.26,,,,
CC[C@H](C)[C@H](NC(=O)[C@@H](NC(=O)[C@@H]1CCCN1C(=O)[C@@H](NC(=O)[C@@H](NC(=O)[C@H](CC(N)=O)NC(=O)CNC(=O)[C@H](CO)NC(=O)[C@H](CS)NC(=O)[C@H](CC(C)C)NC(=O)[C@H](CCCCN)NC(=O)[C@H](CCCNC(=N)N)NC(=O)[C@H](CCCNC(=N)N)NC(=O)[C@@H](N)CCCCN)[C@@H](C)O)[C@@H](C)O)[C@@H](C)CC)C(=O)N[C@@H](Cc1c[nH]cn1)C(=O)O [Peptide 1601.16],5.94,4.98,> 20,,4.74,> 20,,0.0076,9.33,> 20,0.061,0.311,,,,
CC[C@H](C)[C@H](NC(=O)[C@H](C)NC(=O)[C@@H](NC(=O)[C@@H](NC(=O)[C@H](CC(N)=O)NC(=O)[C@H](CC(C)C)NC(=O)[C@H](Cc1ccccc1)NC(=O)[C@H](CCCCN)NC(=O)[C@@H](NC(=O)[C@H](CCCNC(=N)N)NC(=O)[C@H](CCC(N)=O)NC(=O)[C@H](CCCCN)NC(=O)[C@@H](N)CCC(=O)O)[C@@H](C)O)[C@@H](C)O)C(C)C)C(=O)N1CCC[C@H]1C(=O)N[C@@H](CC(=O)O)C(=O)O [Peptide 1601.19],11.8,,> 20,0.123,> 20,,0.061,,> 20,6.45,0.284,4.5,> 20,> 20,,
AATYNFAVLKLMGRGTKF [Peptide F025.08],> 20,,> 20,,,,,,,,,,,,,
DFLNTVKIPNTVSVS [Peptide 1601.28],> 20,> 20,> 20,0.469,2.09,0.277,0.777,0.131,2.19,,0.373,0.5,,,11.8,
GRVNTHVHNPLLCSS [Peptide 1601.34],9.95,> 20,> 20,6.02,2.69,> 20,0.873,0.865,,5.98,3.35,> 20,,,,
QIQVFETLEET [Peptide 1385.01],> 20,,> 20,,,,> 20,> 20,,> 20,,> 20,,,,
QKGRGYRGQHQAHSLERVCH [Peptide F025.05],> 20,,> 20,,,,,,> 20,,,,,,,> 20
RNTFLDVVTIPNSVQ [Peptide 1601.39],6.86,> 20,12,0.27,0.776,0.371,0.555,,17,,5.87,,,,0.326,
SDEISFAGIVTKLPT [Peptide 1601.45],1.66,,> 20,0.901,10.7,12.2,0.513,,0.791,,1.28,8.79,,,2.35,
STSDDTVSATQIVRQ [Peptide 1601.31],3.74,> 20,> 20,5.21,> 20,> 20,18.1,> 20,> 20,,> 20,0.558,,,> 20,
STWHWTGCNKNTGIL [Peptide 1601.38],> 20,16.5,> 20,,11.7,0.662,> 20,0.487,> 20,> 20,> 20,> 20,,,,
VHEGIRTYFVQFKDD [Peptide 1601.05],9.33,> 20,9.92,5.73,12.2,> 20,9.28,,0.038,1.8,5.86,,,,,
VVTIPNSVQISVGYM [Peptide 1601.41],> 20,> 20,> 20,0.071,,4.22,,,3.44,,,0.835,,,,
